This is an account of results in US12318402B2, “Composition for treating or preventing colitis by NAMPT metabolic regulation” (AJOU UNIVERSITY INDUSTRY-ACADEMIC COOPERATION FOUNDATION, priority 2021, dated 2025).

In data set [1] the test system is BMDM. Nature of the data set: pHrodo green E. coli Bioparticles phagocytosis assay in BMDM. The class given is cell-based, mouse. The following applies: for pHrodo intensity: BMDM of WT mice, FIG. 10B, 10D, 11B-11D. As for the experimental part:
(§1) pHrodo™ green-conjugated E. coli Bioparticles™ were diluted in serum medium, incubated for 30 minutes and washed twice with PBS. Cells were incubated for the time indicated in the manufacturer's instructions and analyzed using a FACS Canto II flow cytometer (BD) or fluorescence microscope (DFC3000G; Leica, Wetzlar, Germany).
(§2) Pulse and chase phagocytosis assays were performed using pHrodo green to compare phagocytic activity between macrophages of WT and KO mice. In FIG. 11A, there was an increase in the intensity of the green fluorescence signal in the BMDM of WT mice, indicating the gradual maturation and fusion of phagosomes containing pHrodo green with lysosomes.

In another data set the test system is RAW264.7 cells. Description: pHrodo green phagocytosis assay in RAW264.7 cells. The class given is cell-based. As to conditions: FIG. 10C, 10D, 11D. As for the experimental part:
as §1, §2

The next data set concerns Raw 264.7 cells. Description: ROS measurement in Raw 264.7 cells upon LPS. The class given is cell-based. The following applies: FIG. 10H.
Data set [2] concerns BMDM. Nature of the data set: NAD+ level measurement in BMDM. The class given is cell-based, mouse. The procedure:
(§3) Bone marrow derived macrophages (hereinafter referred to as BMDM) were harvested, and according to the manufacturer's instructions, EnzyChrom NAD^+/NADHA assay Kit (Bioassay Systems, Hayward, CA, USA), Elite NADPH Assay Kit (eEnzyme, Gaithersburg, MD, USA) and Cell Titer-Glo® Luminescent Cell Viability assay (Promega, Madison, WI, USA) were used for analysis.
(§4) Since NAD^+ is an important cofactor in ATP production, ATP levels were measured during LPS treatment. […] However, the NADPH level in NAMPT-depleted macrophages was reduced by 21%.

Data set [3] has as its system BMDM. Description: NADPH level measurement in macrophages (BMDM). The class given is cell-based, mouse. The procedure: as §3, §4
The test system of data set [4] is BMDM. Description: M1/M2 macrophage polarization of BMDM (FACS, Western blot). The class given is cell-based, mouse. As for the experimental part: The cell suspension of Example 4 was stained with various combinations of fluorochrome-conjugated antibodies on ice for 20 minutes under dark conditions, wherein the antibodies included anti-CD45 (30-F11), anti-CD1 lb (M1/70), anti-F4/80 (BM8), anti-Ly6G (1A8), anti-Ly6C (HK1.4), anti-MHC II (M5/114.15.2), anti-CD11c (N418), anti-CD206 (MMR) and anti-CD86 (GL-1) (all purchased from Biolegend, San Diego, CA, USA). Samples were obtained from the FACS Canto II Flow Cytometer (BD, Franklin Lakes, NJ, USA). Data were analyzed using FlowJo™ Software (BD).
Next, it was determined whether NAMPT is involved in the polarization of M1 and M2 macrophages.
(In general: In western blotting, separated proteins are transferred to a membrane and probed.)

In another data set the test system is BMDMs. Nature of the data set: ROS measurement in LPS- and IFN-γ-activated BMDMs. The class given is cell-based, mouse. The following applies: FIG. 13B. The procedure: BMDM or peritoneal macrophages were incubated with HBSS containing 5 μM CM-H2DCFDA (Invitrogen, Carlsbad, CA, USA) for 15 min at 37° C. To measure mitochondrial reactive oxygen species levels, cells were incubated with 5 μM MitoSOX (Invitrogen) for 15 minutes. FACS Canto II (BD) was used to monitor fluorescence levels.

The conditions of data set [5]: mouse, in vivo.
Text: It was further elucidated whether there was any clear cytotoxic effect by NMN injection in mice.
A further data set relates to DSS-induced colitis. Description: DSS-induced colitis model in NAMPT KO mice with NMN administration. The class given is in vivo, mouse. The source says: Nampt^f/f mice (C57BL6), which have two loxP sites adjacent to exon 5, were crossed with LyzM-Cre mice (C57BL6) to specifically knock out (KO) NAMPT in myeloid cell lineages including macrophages (Nampt^f/fLyzMCre^+/− mice; hereinafter referred to as KO mice). KO mice (heterozygous) were used as mice knocked out of bone marrow-specific NAMPT, and Nampt^f/f mice (wild type; hereinafter referred to as WT mice) were used as controls. The mice were stored at the Ajou University Laboratory Animal Research Center and preserved according to the guidelines of the Institution's Animal Care and Use Committee, which approved all animal procedures (2020-0013).
Age- and gender-matched WT mice and KO mice were administered with 2.5% DSS (MP Biomedicals, Santa Ana, CA, USA) for 7 days and then allowed to recover for 7 days. Colitis severity was determined daily through a scoring system based on the sum of scores for the following parameters: weight loss (0 points=no weight loss/weight gain, 1=5 to 10% weight loss, 2=11 to 15% weight loss, 3=16 to 20% weight loss, and 4=21% or more weight loss); stool consistency (score of 0=normal and well formed, 2=very soft and not formed, and 4=loose stool); and hemorrhagic stool score (0=normal colored stool, 2=red colored stool, 4=bloody stool). The disease activity index (DAI) ranged from 0 to 12.
Histology was scored blindly using a semi-quantitative scoring system based on the sum of scores for the following parameters: presence of ulceration: 0=none, 1=present but very slight, 2=minimal, 3=moderate, 4=widespread; presence of inflammation: 0=none, 1=minimal, 2=mild, 3=moderate, 4=severe; degree of inflammation: 0=none, 1=mucosal, 2=mucosal+submucosal, 3=mucosal+submucosal+muscle penetration, 4=full thickness invasion. Immunohistochemistry was performed using rabbit anti-NAMPT (Bethyl Laboratories, TX, USA), rabbit anti-Ki-67 (Abcam, Cambridge, UK), rabbit anti-cleaved caspase 3 (Cell Signaling Technology), mouse anti-CD326 (EpCAM)-APC (Invitrogen) and mouse anti-F4/80 (Abcam) antibodies.
Apoptosis was assessed by the TUNEL assay using the Apoptag plus in situ apoptosis fluorescein detection kit (Merck) according to the manufacturer's instructions. TUNEL positive signals were corrected to total nuclear signals for each field. The phagocytic cells were stained using the Apoptag ISOL dual fluorescence apoptosis detection kit (Millipore) according to the manufacturer's instructions. The stained samples were then incubated overnight with mouse anti-F4/80 antibodies. Fluorescence images were obtained by a confocal microscope (A1R HD25, Nikon, Tokyo, Japan) and a slide scanner (Axioscan, Zeiss, Germany).

Setting [6] is: macrophages of KO mice, NMN with/without 6AN, FIG. 12I.
Where [7] appears, read: NAMPT KO mice, 2.5% DSS, 500 mg/kg i.p.

Each structure is given as a SMILES string.

Consider `CO/C1=C\C(C)=C\[C@@H](C)[C@@H](O)[C@@H](C)C/C(C)=C/C=C/[C@H](OC)[C@@H]([C@@H](C)[C@@H](O)[C@H](C)[C@@]2(O)C[C@@H](O)[C@H](C)[C@@H](C(C)C)O2)OC1=O` [Baf A1, bafilomycin A1], for which the pHrodo intensity entry with BMDM [1] and in the data set on RAW264.7 cells was “reduced the fluorescence intensity” each time.
Turning to `O=C(/C=C/c1cccnc1)NCCCCC1CCN(C(=O)c2ccccc2)CC1` [FK866], the ROS production entry in the data set with Raw 264.7 cells (response to LPS) is “partially inhibited”. Further, the “NAD+ levels” value in the data set with BMDM [2] (FIG. 12B) is on record as “significantly reduced”; in the data set with BMDM [2] (LPS treatment) it was “further decrease”. In the data set with BMDM [3] (in LPS treatment, FIG. 12G), the NADPH levels entry is “further decrease in NADPH levels”. The pHrodo intensity result is given as “decreased” in the data set with BMDM [1] and “reduced pHrodo intensity” in the data set on RAW264.7 cells. For the same compound, in the data set on BMDM [4] (BMDM treated with LPS/IFN-γ or IL-4, FACS, FIG. 7A, 7B), the “polarization of M1 and M2 macrophages” value is “did not result in polarization of M1 and M2 macrophages”. In the data set with BMDM [4] (Western blot, FIG. 7D), the “expression of M1 and M2 macrophage-specific markers” value was “did not affect”.
For the compound `NC(=O)c1ccc[n+]([C@@H]2O[C@H](COP(=O)([O-])OP(=O)(O)OC[C@H]3O[C@@H](n4cnc5c(N)ncnc54)[C@H](O)[C@@H]3O)[C@@H](O)[C@H]2O)c1` [NAD^+, nicotinamide adenine dinucleotide], in the data set with Raw 264.7 cells (LPS, FK866, NAD+ co-treatment), the “inhibitory effect of FK866 on ROS production” value was “recovered”.
As for `NC(=O)c1ccc(N)nc1` [6AN, 6-aminonicotinamide], the NADPH levels result in the data set with BMDM [3] (6AN during LPS challenge, FIG. 12J) is “further reduced NADPH levels”; in the data set on BMDM [3] (setting [6]) it was “blocked”; with BMDM [3] (macrophages of WT mice, FIG. 12H) it was “reduced NADPH levels in a dose-dependent manner”. For the same compound, the ROS levels entry in the data set with BMDMs is given as “decrease in ROS levels”.
Consider `NC(=O)c1ccc[n+]([C@@H]2O[C@H](COP(=O)([O-])O)[C@@H](O)[C@H]2O)c1` [NMN, nicotinamide mononucleotide], for which, in the data set with BMDM [2] (after NAMPT knock out or FK866 treatment, FIG. 12B), the “NAD+ levels” value is recorded as “restored the phenotype”. Also, in data set [5], the “abnormalities in the colon, liver and spleen at the microscopic level” value is on record as “no abnormalities”; the “serum ALT level” value is given as “similar”; the “serum AST level” value is on record as “similar”. The NADPH levels result in the data set with BMDM [3] (in LPS treatment, FIG. 12G) is “increased NADPH levels”. The NADPH levels result in the data set with BMDM [3] (setting [6]) is “restored NADPH levels”. In the data set on BMDM [3] (macrophages of KO mice, FIG. 12D, 12E), the NADPH levels result is “increased NADPH levels”. The same compound returned a survival in the data set with DSS-induced colitis (NAMPT KO mice, 2.5% DSS, 500 mg/kg NMN i.p. 3 times a week, 8 out of 12) of 67%. For the same compound, in the data set with DSS-induced colitis (setting [7]), the DAI result is on record as “restored” and the weight loss entry is given as “restored”. For the same compound, in the data set on DSS-induced colitis (colon tissue, FIG. 14F), the “F4/80+ macrophage population” value was “decrease”, the “Ki-67+ cells” value was “increased”, the “positive signals of TUNEL” value is reported as “decreased” and the “positive signals of cleaved caspase 3” value was “decreased”. In addition, the pHrodo fluorescence intensity result with BMDM [1] (BMDM of KO mice) is listed as “restored fluorescence intensity”.
